Assay type in all cases: cell-based
Test [1] concerns SCC12 head and neck squamous cell carcinoma cells. Kind of test: Cell growth inhibition (CellTiter-Glo), SCC12. As to conditions: Homo sapiens, SCC12, 72 h, 3 days. From the text:
(§1) Esophageal carcinoma cell line OE33 was purchased from ECACC European Collection of Cell Cultures (UK). Breast cancer cell line JIMT-1 and gastric carcinoma cell line MKN-45 were purchased from Deutsche Sammlung von Mikroorganismen and Zellkulturen GmbH (Germany); KPL-4, a human breast cancer cell line was kindly provided by Prof. J Kurebayashi (Kawasaki Medical School, Kurashiki, Japan). […] The LICR-LON-HN5 head and neck carcinoma cell line (HN5) was a gift from the Institute of Cancer Research, Surrey, U.K. HN5C12 was developed by single-cell cloning of HN5 followed by exposure to increasing concentrations of lapatinib. […] Cell growth inhibition was determined via CellTiter-Glo cell viability assays. […] BT474-J4 and HN5C12 were washed with PBS and plated in their culture media without lapatinib. […] ATP levels were determined by adding Cell Titer Glo0 (Promega), incubating for 20 minutes then the luminescent signal was read on the SpectraMax M5 plate with a 0.5 second integration time. Cell growth was calculated relative to vehicle (DMSO) treated control wells. […] y=([…]) where A is the minimum response (ymin), B is the maximum response (ymax), c is the inflection point of the curve (EC50), d is the Hill coefficient, and x is the log10 compound concentration (moles/L). CI values were calculated with the interpolated IC50 values and the mutually non-exclusive equation derived by Chou and […](a)+Db/IC50(b)+(Da×Db)/(IC50(a)×IC50(b)) where IC50(a) is the IC50 of the inhibitor A; IC50(b) is the IC50 for the inhibitor B; […] Excess Over Highest Single Agent (EOHSA) is defined as a statistically significant improvement in the combination compared to the component monotherapies. […] See Borisy et al. (2003) or Hung et al. (1993) for examples and discussion. Analysis was conducted using two-factor analysis of variance with interaction (model terms were dose of drug A, dose of drug B, and interaction between doses of drug A and B), followed by linear contrasts between each combination group and corresponding monotherapies. Analysis was conducted using SAS (version 9, provided by SAS Institute, Cary, N.C.). EOHSA at each dose was calculated as the minimum difference in average % inhibition between the combination and each monotherapy, from the appropriate ANOVA contrast. Since there are many comparisons for the % inhibition endpoint, p-value adjustment for multiple comparisons was performed. Hommel's procedure was implemented in order to improve the power while retaining […] Error Rate (FWE) control by using a sequentially rejective method. The p-values for both synergy and antagonism were calculated using this adjustment.

The subject of test [2] is SCC15 head and neck squamous cell carcinoma cells. Description: Cell growth inhibition (CellTiter-Glo), SCC15. The following applies: Homo sapiens, SCC-15, 72 h, 3 days. The source says: Esophageal carcinoma cell line OE33 was purchased from ECACC European Collection of Cell Cultures (UK). Breast cancer cell line JIMT-1 and gastric carcinoma cell line MKN-45 were purchased from Deutsche Sammlung von Mikroorganismen and Zellkulturen GmbH (Germany); KPL-4, a human breast cancer cell line was kindly provided by Prof. J Kurebayashi (Kawasaki Medical School, Kurashiki, Japan). […] The LICR-LON-HN5 head and neck carcinoma cell line (HN5) was a gift from the Institute of Cancer Research, Surrey, U.K. HN5C12 was developed by single-cell cloning of HN5 followed by exposure to increasing concentrations of lapatinib. […] Cell growth inhibition was determined via CellTiter-Glo cell viability assays. […] BT474-J4 and HN5C12 were washed with PBS and plated in their culture media without lapatinib. […] ATP levels were determined by adding Cell Titer Glo0 (Promega), incubating for 20 minutes then the luminescent signal was read on the SpectraMax M5 plate with a 0.5 second integration time. Cell growth was calculated relative to vehicle (DMSO) treated control wells. […] Excess Over Highest Single Agent (EOHSA) is defined as a statistically significant improvement in the combination compared to the component monotherapies. […] Analysis was conducted using two-factor analysis of variance with interaction (model terms were dose of drug A, dose of drug B, and interaction between doses of drug A and B), followed by linear contrasts between each combination group and corresponding monotherapies. Analysis was conducted using SAS (version 9, provided by SAS Institute, Cary, N.C.). EOHSA at each dose was calculated as the minimum difference in average % inhibition between the combination and each monotherapy, from the appropriate ANOVA contrast. Since there are many comparisons for the % inhibition endpoint, p-value adjustment for multiple comparisons was performed. Hommel's procedure was implemented in order to improve the power while retaining […] Error Rate (FWE) control by using a sequentially rejective method. The p-values for both synergy and antagonism were calculated using this adjustment.

The test system of test [3] is NCI-H596 lung carcinoma cells. Kind of test: Cell growth inhibition (CellTiter-Glo), NCI-H596. The following applies: Homo sapiens, NCI-H596, 72 h, 3 days.
Description: as §1

The subject of test [4] is NCI-H69 lung carcinoma cells. Kind of test: Cell growth inhibition (CellTiter-Glo), NCI-H69. As to conditions: Homo sapiens, NCI-H69, 72 h, 3 days.
Description: as §1

Consider `C#Cc1cccc(Nc2ncnc3cc(OCCOC)c(OCCOC)cc23)c1` [Erlotinib, N-(3-ethynylphenyl)-6,7-bis{[2-(methyloxy)ethyl]oxy}-4-quinazolinamine], for which the IC50 in test [1] (hn_SCC12, +HGF (2 ng/mL)) is above 10 µM; in test [1] (hn_SCC12, −HGF) it was above 10 µM; in test [2] (hn_SCC15, +HGF (2 ng/mL)), 7.7 µM; in test [2] (hn_SCC15, −HGF), 1.62 µM; in test [3] (lung_H596, +HGF (2 ng/mL)), above 10 µM; in test [3] (lung_H596, −HGF) it was above 10 µM. Further, the IC50 in test [4] (lung_H69, +HGF (2 ng/mL)) is above 10 µM; in test [4] (lung_H69, −HGF), above 10 µM.

In the case of `CS(=O)(=O)CCNCc1ccc(-c2ccc3ncnc(Nc4ccc(OCc5cccc(F)c5)c(Cl)c4)c3c2)o1` [Lapatinib, N-(3-chloro-4-{[(3-fluorophenyl)methyl]oxy}phenyl)-6-[5-({[2-(methylsulfonyl)ethyl]amino}methyl)-2-furanyl]-4-quinazolinamine], the half-inhibitory concentration (IC50) is above 10 µM in test [1] (hn_SCC12, +HGF (2 ng/mL)); above 10 µM in test [1] (hn_SCC12, −HGF); 3.81 µM in test [2] (hn_SCC15, +HGF (2 ng/mL)); 1.08 µM in test [2] (hn_SCC15, −HGF); above 10 µM in test [3] (lung_H596, +HGF (2 ng/mL)); above 10 µM in test [3] (lung_H596, −HGF). Further, the concentration for half-maximal inhibition (IC50) in test [4] (lung_H69, +HGF (2 ng/mL)) was determined as 4.74 µM; in test [4] (lung_H69, −HGF), 5.36 µM.

The values above are taken from patent publication US20130150363A1, “Method of Treating Cancer Using a cMET and AXL Inhibitor and an ErbB Inhibitor” (GlaxoSmithKline, priority 2008, published 2013).
